Holding throughout (format): in vivo, C57BL/6J male mice
Assay [1] concerns aged mice. Nature of the assay: Weights of quadriceps, anterior tibialis and gastrocnemius tissues. Conditions: per 100 g body weight, DRH group vs NC group. Here is the method:
Specifically, a negative control group (NC, n=7, American Institute of Nutrition AIN-93G Semisynthetic diet); a D-ribo-2-hexulose-treated group (D-ribo-2-hexulose; DRH, n=7; a portion of cellulose in AIN-93G was replaced with 3% D-ribo-2-hexulose). […] The dose of D-ribo-2-hexulose was set at 3% based on previous animal studies. In the previous studies, the dose of D-ribo-2-hexulose was determined to be 3% in order to investigate a biological effect at a lower dose than the dose. During the experiment, the mice had free access to distilled water, and the food intakes and body weights of the mice were measured weekly, and blood glucose was measured once every 4 weeks. All animal experiments were approved by the Animal Research Ethics Committee of KyungPook National University (Approval Number: KNU-2020-109).

Assay [2] is described as follows: Lipid profiles of muscles and plasma. Here is the method: Plasma TG and TC analysis was performed using an enzyme kit (Asan Pharmaceutical Co., Ltd., Korea). Free fatty acid (FFA) was also measured using an enzyme kit (Abcam., USA). Liver and muscle lipids were extracted, and the dried lipid residue was then dissolved in 1 mL of ethanol for the measurement of TG, TC, and FFA. For emulsification, Triton X-100 and a sodium cholate solution were added to 200 μL of the dissolved lipid solution. The TG, TC, and FFA were analyzed in the same kit as the enzyme kit used for plasma lipid analysis.

Assay [3] relates to aged mice. Nature of the assay: Left hind leg thickness (digital calipers). Conditions: week 12, DRH group vs NC group. Here is the method:
The thicknesses of left hind legs were measured using Bluetec digital calipers (Korea, BLUETEC, BD500) every 4 weeks during the experiment period, and the leg thickness was divided by the body weight of each mouse in order to minimize differences between individuals (mm/100 g× body weight).

The subject of assay [4] is hepatic glucose-6-phosphatase (G6P). Put plainly: Hepatic glucose-6-phosphatase measurement. Conditions: DRH group vs NC group.
The next assay concerns myostatin. Put plainly: IHC analysis of muscle tissue, myostatin. The conditions noted are these: gastrocnemius muscle fibers, increase in NC vs YC. Here is the method:
For morphological tissue observation, parts of liver and muscle tissues were fixed with a 10% formaldehyde solution for 24 hours. Thereafter, the samples were subjected to replacement with the same solution twice, dehydrated twice with ethanol, embedded in paraffin, and treated with poly-L-lysine to prepare tissue slices having a thickness of 5 μm. For morphological analysis, among the prepared tissue sections, the liver tissue was stained with H&E and MT, and the muscle tissue was stained with H&E and Sirius red, and magnified 200 times under an optical microscope. For IHC analysis, the muscle tissue was stained with IGF-1 and Myostatin, and then observed under an optical microscope.

The values below come from patent US12582614B2, “Composition for preventing, alleviating or treating sarcopenia, containing D-ribo-2-hexulose as active ingredient” (KYUNGPOOK NATIONAL UNIVERSITY INDUSTRY-ACADEMIC COOPERATION …, priority 2021, dated 2026).

Take `O=C(CO)[C@H](O)[C@H](O)[C@H](O)CO` [DRH, D-ribo-2-hexulose]: in the assay on aged mice [1], the “weight of the left anterior tibialis” value is listed as “significantly increased”; the “weights of the right and left quadriceps” value was “significantly increased”. Further, in assay [2] (DRH group vs NC group), the “muscle fatty acid level” value was “no significant difference”, the “muscle total cholesterol (TC) level” value is listed as “no significant difference” and the plasma fatty acids entry is “significantly decreased”. In assay [2] (increase in NC vs YC), the “plasma TC level” value is listed as “improved” and the “plasma TG level” value is “improved”. Further, the “muscle triglyceride (TG) level” value in assay [2] (increase with aging) is listed as “significantly reduced this increase”. Further, the “thicknesses of the left hind legs” value in the assay with aged mice [3] is “significantly increased”. The “hepatic glucose-6-phosphatase (G6P)” value in assay [4] is listed as “significantly increased”. Besides, the “expression level of myostatin” value with myostatin is listed as “suppressed this increase to the level of the YC group”.
